Results as given in patent publication US20250388643A1, “GLUCAGON-LIKE PEPTIDE-2 COMPOSITIONS AND METHODS OF MAKING AND USING SAME” (Amunix Pharmaceuticals, Inc., priority 2011, published 2025).
Like-named read-outs stand apart in the source and are kept apart here.

Experiments:
[1] = system: small intestine growth in rats; test: Intestinotrophic growth in normal rats (small intestine weight and length); type: in vivo, rat; conditions: normal Sprague-Dawley rats, SC 12 days; peptide 12.5 nmol/kg twice daily, fusion protein 25 nmol/kg once daily
Experimental: To determine the intestinotrophic properties of GLP2-XTEN, small intestine growth in rats was measured as a primary pharmacodynamic endpoint. […] GLP2-2G-XTEN was dosed at 25 nmol/kg once daily for 12 days. After sacrifice, a midline incision was made, the small intestines were removed, stretched to their maximum length and the length recorded. The fecal material was flushed from the lumen and the small intestinal wet weight recorded. The small intestine length and weight data were analyzed with an ANOVA model with a Tukey/Kramer post-hoc test for pairwise comparisons, with significance at p=0.05.

[2] = system: DSS-induced intestinal colitis in C57Bl/6 mice; test: Murine acute DSS-induced colitis model; type: in vivo, mouse; conditions: DSS-treated mice
Experimental: To determine the efficacy of GLP2-XTEN, the GLP2-2G-XTEN-AE864 fusion protein was evaluated in a mouse model of intestinal inflammatory colitis. […] A naïve, non-treated control group (group 1) was given normal drinking water for the duration of the experiment. […] Tissues were fixed in formalin and then transferred to ethanol for staining and histopathology. The anatomical data was analyzed with an ANOVA model with a Tukey/Kramer post-hoc test for pairwise comparisons, with significance at p=0.05.

[3] = system: indomethacin-induced intestinal inflammation in Wistar rats; test: Rat Crohn's Disease indomethacin-induced intestinal inflammation model, Study 1; type: in vivo
Experimental: To determine the efficacy of GLP2-XTEN using single dose or qd dosing, the GLP2-2G-XTEN-AE864 fusion protein was evaluated in a rat model of Crohn's Disease of indomethacin-induced intestinal inflammation in three separate studies.
Study 1: Intestinal inflammation was induced in eighty male Wistar rats (Harlan Sprague Dawley) using indomethacin administered on Days 0 and 1 of the experiment. The rats were divided into seven treatment groups for treatment according to Table 19.
All treatments were administered per the schedule starting on Day −3 of the experiment. Body weights were determined daily. Groups 3 and 5 were dosed equimolar/day. On Day 2 (24 hours post-2nd indomethacin dose), the animals were prepped for sacrifice and analysis. Thirty minutes prior to sacrifice, the rats were injected intravenously with 1 ml 1% Evans Blue dye, in order to visualize ulcers and extent of inflammation by histopathology analysis. The rats were anesthetized (SOP 1810), blood samples were removed to determine the concentration of GLP-2-2G-XTEN using the anti-XTEN/anti-GLP2 ELISA method. The rats were euthanized then necropsied and scored by gross examination of the intestines for the presence of adhesions; i.e., none=0, mild=1, moderate=2, or severe=3. The small intestines were removed and the length of each was recorded. In each small intestine, a longitudinal incision was made and the interior was examined. The degree and length of the ulcerated area was recorded as a score; i.e., none=0, few=1, multiple=2, or continuous=3. For TNFα determination, intestinal samples were thawed and homogenized in a total of 20 ml with DPBS. The supernatants were equilibrated to room temperature and assayed for TNFα by ELISA (R&D Systems, Cat. RTA00, lot 281687, exp. 7 Sep. 2011). The samples for Group 1 were assayed undiluted. The samples for Groups 2-7 were diluted 1:4. For histopathology, the small intestines were gently washed with saline to remove the fecal material and were blotted to remove excess fluid. Each small intestine was weighed then processed for histopathology examination to quantitate the degree of inflammation; i.e., 0.0%=0, 1-33%=1, 34-66%=2, 67-100%=3.

[4] = system: indomethacin-induced intestinal inflammation in Wistar rats; type: in vivo, rat
Experimental: Study 2: Intestinal inflammation was induced in eighty male Wistar rats (Harlan Sprague Dawley) using indomethacin administered on Days 0 and 1 of the experiment. The rats were divided into eight treatment groups for treatment according to Table 20. All treatments were administered per the schedule starting on Day-3 of the experiment. Body weights were determined daily. On Day 2 (24 hours post-2nd indomethacin dose), the animals were prepped for sacrifice and analysis. Thirty minutes prior to sacrifice, the rats were injected intravenously with 1 ml 1% Evans Blue dye, in order to visualize ulcers and extent of inflammation by histopathology analysis. The rats were anesthetized and blood samples were removed to determine the concentration of GLP-2-2G-XTEN using the anti-XTEN/anti-GLP2 ELISA method. The rats were euthanized then necropsied and scored by gross examination of the intestines for the presence of adhesions; i.e., none=0, mild=1, moderate=2, or severe=3. The small intestines were removed and the length of each was recorded. In each small intestine, a longitudinal incision was made and the interior was examined. The degree and length of the ulcerated area was recorded as a score; i.e., none=0, few=1, multiple=2, or continuous=3. The fecal material was washed away with saline and blotted to remove excess fluid and each small intestine was weighed then processed for histopathology examination to quantitate the degree of inflammation; i.e., 0.0%=0, 1-33%=1, 34-66%=2, 67-100%=3.

[5] = system: indomethacin-induced intestinal inflammation in Wistar rats; test: Rat Crohn's Disease indomethacin-induced intestinal inflammation model, Study 3; type: in vivo
Experimental: Study 3: A third indomethacin-induced inflammation study was performed to verify previous results and test additional dose regimens. Intestinal inflammation was induced in male Wistar rats (Harlan Sprague Dawley) using indomethacin administered on Days 0 and 1 of the experiment according to Table 21.
All treatments were administered per the schedule starting on Day-3 of the experiment. Body weights were determined daily. On Day 2 (24 hours post-2nd indomethacin dose), the animals were prepped for sacrifice and analysis. The small intestines were removed and the length of each was recorded. Quantitative histopathology was performed on a subset of samples. Rat small intestine samples consisted of a 3 cm section of proximal jejunum and a 3 cm section of mid-jejunum collected 15 cm and 30 cm from the pylorus, respectively. Samples were fixed in 10% neutral buffered formalin. Samples were trimmed into multiple sections without bias toward lesion presence or absence. These sections were placed in cassettes, embedded in paraffin, microtomed at approximately 4 microns thickness, and stained with hematoxylin and eosin (H&E). The slides were evaluated microscopically by a board certified veterinary pathologist and scored for villous height as well as infiltration/inflammation, mucosal atrophy, villi/crypt appearance, abscesses/ulceration. A 1 to 4 severity grading scale was used, where 1=minimal, 2=mild, 3=moderate, 4=marked/severe, reflecting the combination of the cellular reactions seen histopathologically. Small intestine length was analyzed with an ANOVA model with a Tukey/Kramer post-hoc test for pairwise comparisons, with significance at p=0.05. Non-parametric histology score variables were compared with the vehicle control using a Mann Whitney U test with a Bonferroni correction for the p-value to create an overall alpha of 0.05.

[6] = cited from earlier work; for terminal half-life: in humans

CC[C@H](C)[C@H](NC(=O)[C@H](Cc1ccccc1)NC(=O)[C@H](CC(=O)O)NC(=O)[C@H](CCCNC(=N)N)NC(=O)[C@H](C)NC(=O)[C@H](C)NC(=O)[C@H](CC(C)C)NC(=O)[C@H](CC(N)=O)NC(=O)[C@H](CC(=O)O)NC(=O)[C@H](CC(C)C)NC(=O)[C@@H](NC(=O)[C@@H](NC(=O)[C@H](CC(N)=O)NC(=O)[C@H](CCSC)NC(=O)[C@H](CCC(=O)O)NC(=O)[C@H](CC(=O)O)NC(=O)[C@H](CO)NC(=O)[C@H](Cc1ccccc1)NC(=O)[C@H](CO)NC(=O)CNC(=O)[C@H](CC(=O)O)NC(=O)CNC(=O)[C@@H](N)Cc1c[nH]cn1)[C@@H](C)O)[C@@H](C)CC)C(=O)N[C@@H](CC(N)=O)C(=O)N[C@@H](Cc1c[nH]c2ccccc12)C(=O)N[C@@H](CC(C)C)C(=O)N[C@H](C(=O)N[C@@H](CCC(N)=O)C(=O)N[C@H](C(=O)N[C@@H](CCCCN)C(=O)N[C@H](C(=O)N[C@H](C(=O)N[C@@H](CC(=O)O)C(=O)O)[C@@H](C)O)[C@@H](C)CC)[C@@H](C)O)[C@@H](C)CC [GLP2-2G peptide, reference compound]
increase in small intestine length [1]: no significant effects | increase in small intestine weight [1]: 24% | growth in the assayed tissues (colon, small intestine, stomach) ([2]; BID days 1-10): did not induce significant growth | loss of body weight ([2]; SC days 1-10, peptide BID, fusion protein QD, any dose): neither the mice treated with GLP2-2G peptide nor any of the groups of mice treated with any dose of GLP2-2G-XTEN mice showed a reduced loss of body weight | small intestine weight ([3]; 0.5 mg/kg peptide, both fusion protein groups, compared to diseased control Group 2, FIG. 21C): significant increase | small intestine length ([3]; FIG. 21B): significant increase | ulceration (gross pathology scoring of small intestine) ([3]; FIG. 21D): significant decreases in ulceration | small intestine inflammation score ([3]; FIG. 21F): neither the GLP-2-2G peptide nor the GLP-2-2G-XTEN fusion protein treatments showed a significant effect on inflammation | body weight at termination ([3]; compared to disease control (Group 2), FIG. 21A): did not have a significant increase in body weight | scores of adhesions and transulceration ([3]; compared to diseased control (Group 2), FIG. 21E): significant decreases | TNFα in small intestine (ELISA) ([3]; compared to diseased control Group 2, FIG. 21G): significantly decreased cytokine levels | histopathology: protective effects ([4]; daily bid peptide, once-daily fusion protein): most pronounced in the ileum, but were also seen in the jejunum | adhesions score ([4]; once-daily fusion protein, daily bid peptide, FIG. 22B): reached statistically significant difference | small intestine length ([4]; once-daily fusion protein, daily bid peptide, vs indomethacin-treated vehicle control): reached statistically significant difference | total disease score ([4]; peptide delivered bid, fusion protein delivered qd, vs indomethacin-treated vehicle control): significantly improved scores | villi height ([5]; fusion protein high (total dose 125 nmol/kg) and low (total dose 75 nmol/kg), FIG. 24B): not significant | mucosal ulceration and mixed cell infiltrate ([5]; three treatment groups): not significant

CC[C@H](C)[C@H](NC(=O)[C@H](Cc1ccccc1)NC(=O)[C@H](CC(=O)O)NC(=O)[C@H](CCCNC(=N)N)NC(=O)[C@H](C)NC(=O)[C@H](C)NC(=O)[C@H](CC(C)C)NC(=O)[C@H](CC(N)=O)NC(=O)[C@H](CC(=O)O)NC(=O)[C@H](CC(C)C)NC(=O)[C@@H](NC(=O)[C@@H](NC(=O)[C@H](CC(N)=O)NC(=O)[C@H](CCSC)NC(=O)[C@H](CCC(=O)O)NC(=O)[C@H](CC(=O)O)NC(=O)[C@H](CO)NC(=O)[C@H](Cc1ccccc1)NC(=O)[C@H](CO)NC(=O)CNC(=O)[C@H](CC(=O)O)NC(=O)CNC(=O)[C@@H](N)Cc1c[nH]cn1)[C@@H](C)O)[C@@H](C)CC)C(=O)N[C@@H](CC(N)=O)C(=O)N[C@@H](Cc1c[nH]c2ccccc12)C(=O)N[C@@H](CC(C)C)C(=O)N[C@H](C(=O)N[C@@H](CCC(N)=O)C(=O)N[C@H](C(=O)N[C@@H](CCCCN)C(=O)N[C@H](C(=O)N[C@H](C(=O)N[C@@H](CC(=O)O)C(=O)O)[C@@H](C)O)[C@@H](C)CC)[C@@H](C)O)[C@@H](C)CC [teduglutide]
terminal half-life ([6]; reported (Marier 2008)): 192 min | terminal half-life ([6]; reported (Marier 2010)): 54 to 138 min | half life ([6]; reported (Marier 2010)): 54 to 138 min

native GLP-2: human glucagon-like peptide-2, 33 amino acids, HADGSFSDEMNTILDNLAARDFINWLIQTKITD (SEQ ID NO: 2)
half-life (terminal half-life in humans) ([6]; human, in vivo): approximately seven minutes
